Our source for the IC50 values is patent US8084479B2, “Thiazole compounds and methods of use” (Amgen Inc., priority 2006, dated 2011).

Chain of PKBα (P31749 118-480 limits assumed): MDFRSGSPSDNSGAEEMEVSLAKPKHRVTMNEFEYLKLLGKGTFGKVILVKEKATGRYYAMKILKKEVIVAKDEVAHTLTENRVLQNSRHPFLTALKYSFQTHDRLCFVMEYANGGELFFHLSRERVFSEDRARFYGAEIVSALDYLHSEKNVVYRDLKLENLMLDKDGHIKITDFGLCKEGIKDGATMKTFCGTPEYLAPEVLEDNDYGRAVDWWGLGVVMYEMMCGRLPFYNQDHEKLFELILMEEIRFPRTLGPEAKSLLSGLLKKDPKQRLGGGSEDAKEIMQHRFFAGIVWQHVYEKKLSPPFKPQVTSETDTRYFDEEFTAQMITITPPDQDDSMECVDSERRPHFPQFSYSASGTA

The assay has as its target PKBα (Homo sapiens, UniProt P31749). Briefly: PKB kinase assay (P33-labeled ATP, peptide substrate, filter plate). It counts as biochemical. Particulars: PKBα enzyme (full length or kinase domain with pleckstrin domain deleted). An excerpt: The kinase assay for evaluating PKB activity comprises active PKB enzymes, a PKB specific substrate, and P^33-labeled ATP. […] The phosphorylated substrate was captured by a phosphocellulose membrane filter plate (MLLIPORE) and measured by a Wallac Microbeta liquid scintillation counter (Perkin Elmer).
Consider `N[C@H](CNc1nc(C(=O)NCCO)c(-c2ccc3cnccc3c2)s1)Cc1ccc(C(F)(F)F)cc1` [Example 119, 2-((S)-2-Amino-3-(4-(trifluoromethyl)phenyl)-propylamino)-N-(2-hydroxyethyl)-5-(isoquinolin-6-yl)thiazole-4-carboxamide], for which the IC50 – broadly, the concentration that gives 50% inhibition – was 1000 to 10000 nM.
The same measure for `CNC(=O)c1nc(NC[C@@H](N)Cc2ccc(C(F)(F)F)cc2)sc1-c1ccc2cnccc2c1` [Example 120, 2-((S)-2-amino-3-(4-(trifluoromethyl)phenyl)-propylamino)-5-(isoquinolin-6-yl)-N-methylthiazole-4-carboxamide]: less than 50 nM; for `NC(=O)c1nc(NC[C@@H](N)Cc2ccc(C(F)(F)F)cc2)sc1-c1ccc2cnccc2c1` [Example 121, 2-((S)-2-amino-3-(4-(trifluoromethyl)phenyl)propylamino)-5-(isoquinolin-6-yl)thiazole-4-carboxamide]: 1000 to 10000 nM.
The same measure for `COC(=O)c1nc(NC[C@@H](N)Cc2ccc(C(F)(F)F)cc2)sc1-c1ccc2c(c1)CC(=O)N2` [Example 122, Methyl 2-((S)-2-amino-3-(4-(trifluoromethyl)phenyl)propylamino)-5-(2-oxoindolin-5-yl)thiazole-4-carboxylate]: 50 to 1000 nM; for `N[C@H](CNc1nc(CO)c(-c2ccc3c(c2)CC(=O)N3)s1)Cc1ccc(C(F)(F)F)cc1` [Example 123, 5-(2-((S)-2-Amino-3-(4-(trifluoromethyl)phenyl)propylamino)-4-(hydroxymethyl)thiazol-5-yl)indolin-2-one]: less than 50 nM.
For `COC(=O)c1nc(NC[C@@H](N)Cc2ccc(C(F)(F)F)cc2)sc1-c1ccc2[nH]c(=O)oc2c1` [Example 124, Methyl 2-((S)-2-Amino-3-(4-(trifluoromethyl)phenyl)propylamino)-5-(2-oxo-2,3-dihydrobenzo[d]oxazol-6-yl)thiazole-4-carboxylate] the value was less than 50 nM; for `N[C@H](CNc1nc(CO)c(-c2ccc3[nH]c(=O)oc3c2)s1)Cc1ccc(C(F)(F)F)cc1` [Example 125, 6-(2-((S)-2-Amino-3-(4-(trifluoromethyl)phenyl)propylamino)-4-(hydroxymethyl)thiazol-5-yl)benzo[d]oxazol-2(3H)-one], less than 50 nM; for `N[C@H](CNc1ncc(-c2ccc3c(c2)CC(=O)N3)s1)Cc1ccc(F)c(F)c1` [Example 126, 5-(2-((S)-2-Amino-3-(3,4-difluorophenyl)propylamino)thiazol-5-yl)indolin-2-one], 50 to 1000 nM.
On to `N[C@H](CNc1ncc(-c2ccc3[nH]c(=O)oc3c2)s1)Cc1ccc(F)c(F)c1` [Example 127, 6-(2-((S)-2-Amino-3-(3,4-difluorophenyl)propylamino)thiazol-5-yl)benzo[d]oxazol-2(3H)-one], for which the IC50 is 50 to 1000 nM.
For `CC(=O)N[C@H](CNc1ncc(-c2ccc3c(c2)CC(=O)N3)s1)Cc1ccc(C(F)(F)F)cc1` [Example 128, N—((S)-1-(5-(2-Oxoindolin-5-yl)thiazol-2-ylamino)-3-(4-(trifluoro-methyl)phenyl)propan-2-yl)acetamide] the value was 1000 to 10000 nM; for `COc1ccc(CC(N)CNc2ncc(-c3ccc4[nH]c(=O)oc4c3)s2)cc1F` (centres unmarked) [Example 129, 6-(2-(2-Amino-3-(3-fluoro-4-methoxyphenyl)propylamino)-thiazol-5-yl)benzo[d]oxazol-2(3H)-one], 50 to 1000 nM.
For `COc1ccc(CC(N)CNc2ncc(-c3ccc4c(c3)CC(=O)N4)s2)cc1F` (centres unmarked) [Example 130, 5-(2-(2-Amino-3-(3-fluoro-4-methoxyphenyl)propylamino)thiazol-5-yl)indolin-2-one] the value was 50 to 1000 nM.
The same measure for `COc1ccc(CC(N)CNc2ncc(-c3ccc4cnccc4c3)s2)cc1F` (centres unmarked) [Example 131, N-(2-Amino-3-(3-fluoro-4-methoxyphenyl)propyl)-5-(isoquinolin-6-yl)thiazol-2-amine]: 50 to 1000 nM.
In turn, `N[C@H](CNc1ncc(-c2ccc3cnccc3c2)s1)Cc1ccc(Cl)c(Cl)c1` [Example 132, N—((S)-2-Amino-3-(3,4-dichlorophenyl)propyl)-5-(isoquinolin-6-yl)thiazol-2-amine] registered an IC50 of less than 50 nM.
For `N[C@H](CNc1nc(C(F)(F)CO)c(-c2ccc3c(c2)CC(=O)N3)s1)Cc1ccc(C(F)(F)F)cc1` [Example 133, 5-(2-((S)-2-Amino-3-(4-(trifluoromethyl)phenyl)propylamino)-4-(1,1-difluoro-2-hydroxyethyl)thiazol-5-yl)indolin-2-one] the value was 1000 to 10000 nM.
The same measure for `N[C@H](CNc1nc(C(F)(F)CO)c(-c2ccc3cnccc3c2)s1)Cc1ccc(C(F)(F)F)cc1` [Example 134, 2-(2-((S)-2-Amino-3-(4-(trifluoromethyl)phenyl)-propylamino)-5-(isoquinolin-6-yl)thiazol-4-yl)-2,2-difluoroethanol]: 50 to 1000 nM; for `N[C@H](CNc1nc(C(F)(F)CO)c(-c2ccc3[nH]c(=O)oc3c2)s1)Cc1ccc(C(F)(F)F)cc1` [Example 135, 6-(2-((S)-2-Amino-3-(4-(trifluoromethyl)phenyl)-propylamino)-4-(1,1-difluoro-2-hydroxyethyl)thiazol-5-yl)benzo[d]oxazol-2(3H)-one]: 1000 to 10000 nM.
For `Cn1c(=O)[nH]c2ccc(-c3sc(NC[C@@H](N)Cc4ccc(C(F)(F)F)cc4)nc3C(F)(F)CO)cc21` [Example 136, 6-(2-((S)-2-Amino-3-(4-(trifluoromethyl)phenyl)propylamino)-4-(1,1-difluoro-2-hydroxyethyl)thiazol-5-yl)-1-methyl-1H-benzo[d]imidazol-2(3H)-one] the value was 1000 to 10000 nM; for `N[C@@H](CNc1ncc(-c2ccc3c(c2)CC(=O)N3)s1)Cc1ccc(C(F)(F)F)cc1` [Example 137, 5-(2-((R)-2-Amino-3-(4-(trifluoromethyl)phenyl)propylamino)thiazol-5-1)indolin-2-one], 50 to 1000 nM; for `CNc1cc2cc(-c3cnc(NC[C@@H](N)Cc4ccc(C(F)(F)F)cc4)s3)ccc2cn1` [Example 138, 6-(2-((S)-2-amino-3-(4-(trifluoromethyl)phenyl)propylamino)thiazol-5-yl)-N-methylisoquinolin-3-amine], less than 50 nM.
`CNc1cc2cc(-c3cnc(NC[C@@H](N)Cc4ccc(Cl)cc4)s3)ccc2cn1` [Example 139, 6-(2-((S)-2-amino-3-(4-chlorophenyl)propylamino)thiazol-5-yl)-N-methylisoquinolin-3-amine] came in with an IC50 of less than 50 nM.
Molecule `N[C@H](CNc1nc(C#CCO)c(-c2ccc3cnccc3c2)s1)Cc1ccc(C(F)(F)F)cc1` [Example 140, 3-(2-((S)-2-amino-3-(4-(trifluoromethyl)phenyl)propylamino)-5-(isoquinolin-6-yl)thiazol-4-yl)prop-2-yn-1-ol] showed an IC50 of less than 50 nM.
For the molecule `CC(O)C#Cc1nc(NC[C@@H](N)Cc2ccc(C(F)(F)F)cc2)sc1-c1ccc2cnccc2c1` (stereo partly drawn) [Example 141, 4-(2-((S)-2-amino-3-(4-(trifluoromethyl)phenyl)propylamino)-5-(isoquinolin-6-yl)thiazol-4-yl)but-3-yn-2-ol], the IC50 was less than 50 nM.
Regarding `N[C@H](CNc1nc(C#CC2(O)CCC2)c(-c2ccc3cnccc3c2)s1)Cc1ccc(C(F)(F)F)cc1` [Example 142, 1-(2-(2-((S)-2-amino-3-(4-(trifluoromethyl)phenyl)propylamino)-5-(isoquinolin-6-yl)thiazol-4-yl)ethynyl)cyclobutanol], the half-inhibitory concentration (IC50) fell in the range of 50 to 1000 nM.
For `CC#Cc1nc(NC[C@@H](N)Cc2ccc(C(F)(F)F)cc2)sc1-c1ccc2cnccc2c1` [Example 143, N—((S)-2-amino-3-(4-(trifluoromethyl)phenyl)propyl)-5-(isoquinolin-6-yl)-4-(prop-1-ynyl)thiazol-2-amine] the value was less than 50 nM; for `CC(O)C#Cc1nc(NC[C@@H](N)Cc2ccc(C(F)(F)F)cc2)sc1-c1ccc2c(c1)CC(=O)N2` (stereo partly drawn) [Example 144, 5-(2-((S)-2-amino-3-(4-(trifluoromethyl)phenyl)propylamino)-4-(3-hydroxybut-1-ynyl)thiazol-5-yl)indolin-2-one], less than 50 nM; for `N[C@H](CNc1nc(C#CCO)c(-c2ccc3c(c2)CC(=O)N3)s1)Cc1ccc(C(F)(F)F)cc1` [Example 145, 5-(2-((S)-2-amino-3-(4-(trifluoromethyl)phenyl)propylamino)-4-(3-hydroxyprop-1-ynyl)thiazol-5-yl)indolin-2-one], less than 50 nM.
The same measure for `COCC#Cc1nc(NC[C@@H](N)Cc2ccc(C(F)(F)F)cc2)sc1-c1ccc2cnccc2c1` [Example 146, N—((S)-2-amino-3-(4-(trifluoromethyl)phenyl)propyl)-5-(isoquinolin-6-yl)-4-(3-methoxyprop-1-ynyl)thiazol-2-amine]: 50 to 1000 nM; for `N[C@H](CNc1nc(C#CC2=CCCC2)c(-c2ccc3cnccc3c2)s1)Cc1ccc(C(F)(F)F)cc1` [Example 147, N—((S)-2-amino-3-(4-(trifluoromethyl)phenyl)propyl)-4-(2-cyclopentenylethynyl)-5-(isoquinolin-6-yl)thiazol-2-amine]: 1000 to 10000 nM.
`N[C@H](CNc1nc(C#CC2(O)CCCC2)c(-c2ccc3cnccc3c2)s1)Cc1ccc(C(F)(F)F)cc1` [Example 148, 1-(2-(2-((S)-2-amino-3-(4-(trifluoromethyl)phenyl)propylamino)-5-(isoquinolin-6-yl)thiazol-4-yl)ethynyl)cyclopentanol]: the IC50 was 50 to 1000 nM.
For `Cc1n[nH]c2ccc(-c3sc(NC[C@@H](N)Cc4ccc(C(F)(F)F)cc4)nc3C#CCO)cc12` [Example 149, 3-(2-((S)-2-amino-3-(4-(trifluoromethyl)phenyl)propylamino)-5-(3-methyl-1H-indazol-5-yl)thiazol-4-yl)prop-2-yn-1-ol] the value was less than 50 nM; for `N[C@H](CNc1nc(C#CCO)c(-c2ccc3[nH]c(=O)oc3c2)s1)Cc1ccc(C(F)(F)F)cc1` [Example 150, 6-(2-((S)-2-amino-3-(4-(trifluoromethyl)phenyl)propylamino)-4-(3-hydroxyprop-1-ynyl)thiazol-5-yl)benzo[d]oxazol-2(3H)-one], less than 50 nM.
